Consider 15 compounds from PubChem BioAssay (NCI).

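Method: 48-hour compound exposure of cells in 96-well plates, five concentrations, linear interpolation of endpoints. At the GI50, growth is halved. At the TGI there is no net growth.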

Among the test systems are HOP-92 NSCLC; KM12 colon; NCI-H23 lung; RXF 393 renal; SF-268 CNS; SF-295 CNS; SN12C renal; U251 CNS; MDA-MB-231 breast; BT-549 breast.
What all share (assay): DTP human tumour cell line panel, 48 h

In the case of `O=P(c1ccccc1)(c1ccccc1)C1CC=C2CCCCCC2C1` (stereo not given), the concentration for total growth inhibition (TGI) is 39.9 µM with HOP-92 NSCLC; > 100 µM in the assay with KM12 colon; > 100 µM with NCI-H23 lung; 72.6 µM with RXF 393 renal; 66 µM in the assay with SF-268 CNS; > 100 µM in the assay with SF-295 CNS. In addition, the total growth inhibition concentration (TGI) in the assay on SN12C renal and in the assay with U251 CNS was > 100 µM in each case.
In the case of `CC(=O)[O-].O=C([CH-]C(=O)c1ccccc1)c1ccccc1.O=C([CH-]C(=O)c1ccccc1)c1ccccc1.[Dy+3]`, the GI50 was 18.8 µM in the assay on HOP-92 NSCLC; 21 µM in the assay on KM12 colon; 9.36 µM with NCI-H23 lung; 6.84 µM in the assay on RXF 393 renal; 10.4 µM in the assay with SF-268 CNS; 7.73 µM in the assay with SF-295 CNS. Further, the GI50 in the assay on SN12C renal and in the assay on U251 CNS was 11.9 µM each time. Besides, the TGI with HOP-92 NSCLC is 43.9 µM; in the assay on KM12 colon it was > 100 µM; with NCI-H23 lung, 37 µM; with RXF 393 renal it was 34.7 µM; in the assay with SF-268 CNS, 56.4 µM; in the assay with SF-295 CNS, 28.8 µM. Besides, the figures for the concentration for total growth inhibition (TGI) in the assay on SN12C renal and in the assay on U251 CNS were 59.5 µM and > 100 µM, respectively.
As for `C/C=C/C(C/C=C(\C)CO[Si](C)(C)C(C)(C)C)O[Si](C)(C)C(C)(C)C` (stereo not given), the TGI in the assay on KM12 colon, in the assay on MDA-MB-231 breast, in the assay on NCI-H23 lung, in the assay with RXF 393 renal, with SF-268 CNS and in the assay on SF-295 CNS was > 100 µM each time. The concentration for total growth inhibition (TGI) in the assay on SN12C renal was > 100 µM.
In the case of `N#CC1(C2CC(=O)N(c3ccccc3)C2=O)CCCCC1=O` (stereo not given), the total growth inhibition concentration (TGI) in the assay on KM12 colon, in the assay with NCI-H23 lung, in the assay on RXF 393 renal, in the assay with SF-268 CNS, with SF-295 CNS and in the assay on SN12C renal was > 100 µM throughout. For the same compound, in the assay on U251 CNS, the total growth inhibition concentration (TGI) was > 100 µM.
Take `N#Cc1cccc(C2SCc3nc4ccccc4n32)c1` (stereo not given): the concentration for total growth inhibition (TGI) in the assay with HOP-92 NSCLC, with KM12 colon, in the assay on NCI-H23 lung, in the assay on RXF 393 renal, in the assay with SF-268 CNS and with SF-295 CNS was > 100 µM throughout. Further, the TGI in the assay with SN12C renal and in the assay on U251 CNS was > 100 µM in each case.
Turning to `CCC[CH2][Sn]1([CH2]CCC)[O]C(=O)c2cccnc2[S]1`, the GI50 is 3.37 µM in the assay on HOP-92 NSCLC; 6.92 µM in the assay with KM12 colon; 2.13 µM in the assay on NCI-H23 lung; 1.66 µM in the assay on RXF 393 renal; 3.19 µM in the assay on SF-295 CNS; 3.8 µM in the assay on SN12C renal. The GI50 in the assay on U251 CNS is 1.21 µM. For the same compound, the total growth inhibition concentration (TGI) in the assay with HOP-92 NSCLC was found to be 12.1 µM; with KM12 colon it was 19.6 µM; in the assay on NCI-H23 lung it was 5.41 µM; in the assay with RXF 393 renal, 3.2 µM; with SF-295 CNS, 12 µM; with SN12C renal, 13.2 µM. Besides, in the assay on U251 CNS, the TGI worked out at 5.33 µM.
Regarding `O=C(c1ccccc1)N1CCc2c([nH]c3ccccc23)C1`, the concentration for total growth inhibition (TGI) with HOP-92 NSCLC, in the assay on KM12 colon, with NCI-H23 lung, with SF-295 CNS, in the assay on SN12C renal and with U251 CNS was > 100 µM throughout.
Consider `C/C(=N\NC(N)=S)c1ccc(Oc2ccccc2)cc1`, for which the TGI was 9.48 µM in the assay with HOP-92 NSCLC; 83.3 µM in the assay with NCI-H23 lung; 26.2 µM with RXF 393 renal; 38.4 µM in the assay on SF-295 CNS; 38.4 µM in the assay with SN12C renal; 31.3 µM with U251 CNS.
For the compound `O=c1[nH]c2c(ccc3cnccc32)c2c1CCC2`, the GI50 is 0.172 µM with BT-549 breast; 0.332 µM in the assay on KM12 colon; 0.361 µM in the assay with MDA-MB-231 breast; 0.394 µM with NCI-H23 lung; 0.333 µM in the assay on SF-268 CNS; 0.362 µM with SF-295 CNS. Further, the concentration for 50% growth inhibition (GI50) in the assay on SN12C renal is 0.365 µM; in the assay with U251 CNS it was 0.33 µM. In addition, the TGI was 0.532 µM with BT-549 breast; > 35.7 µM in the assay on KM12 colon; > 100 µM with MDA-MB-231 breast; > 20.3 µM with NCI-H23 lung; 37.3 µM in the assay with SF-268 CNS; > 100 µM with SF-295 CNS. The total growth inhibition concentration (TGI) in the assay on SN12C renal and in the assay with U251 CNS was > 100 µM each time.
On to `O=C(CC1(O)C(=O)Nc2ccc(Br)cc21)c1cccc([N+](=O)[O-])c1` (stereo not given), for which the total growth inhibition concentration (TGI) was 74.6 µM in the assay on HOP-92 NSCLC; > 100 µM in the assay with KM12 colon; > 100 µM with NCI-H23 lung; 83.8 µM in the assay with RXF 393 renal; > 100 µM in the assay with SF-268 CNS; > 100 µM in the assay on SF-295 CNS. The concentration for total growth inhibition (TGI) with SN12C renal and in the assay with U251 CNS was > 100 µM throughout.
With `O=C1C(=C2C(=O)c3ccccc3[N+]2=O)N([O-])c2ccccc21`, the TGI with NCI-H23 lung was 77.7 µM; in the assay with RXF 393 renal, 90.6 µM; in the assay on SF-268 CNS, 88.5 µM; with SF-295 CNS, > 100 µM; with U251 CNS it was 53.9 µM.
On to `O=C1N(c2ccccc2)C2(O)C(=O)c3ccccc3C2(O)N1c1ccccc1` (stereo not given), for which the total growth inhibition concentration (TGI) with KM12 colon, in the assay with NCI-H23 lung, with RXF 393 renal, in the assay on SF-268 CNS, in the assay with SF-295 CNS and with SN12C renal was > 100 µM each time. In the assay on U251 CNS, the TGI was > 100 µM.
For the compound `CCOc1ccc(/C=C/C(=O)c2sc(NNC(C)=O)nc2C)cc1`, the total growth inhibition concentration (TGI) in the assay with HOP-92 NSCLC, in the assay on KM12 colon, with NCI-H23 lung, with RXF 393 renal, with SF-268 CNS and in the assay with SF-295 CNS was > 100 µM in each case. The TGI with SN12C renal and in the assay on U251 CNS was > 100 µM each time.
`CC1(C)OC2OC(/C=C/[N+](=O)[O-])C3OC(C)(C)OC3C2O1` (stereo not given): the TGI in the assay on HOP-92 NSCLC was determined as 19.6 µM; in the assay with KM12 colon, 31.5 µM; in the assay with NCI-H23 lung it was 37.6 µM; in the assay with RXF 393 renal, 5.99 µM; with SF-268 CNS it was 39.5 µM; with SF-295 CNS, 36 µM. In addition, the TGI in the assay with SN12C renal was determined as 31.1 µM; in the assay with U251 CNS it was 32.7 µM.
As to `C=CC(C)(C)[C@@]12CC3C(=O)N[C@@H](Cc4ccccc4)C(=O)N3[C@@H]1N(C(C)=O)c1ccccc12` (stereo not given in full), the concentration for total growth inhibition (TGI) in the assay on HOP-92 NSCLC was 91.2 µM; in the assay with KM12 colon it was > 100 µM; with NCI-H23 lung, > 100 µM; in the assay on SF-295 CNS it was > 100 µM; in the assay with SN12C renal, > 100 µM; in the assay on U251 CNS it was > 100 µM.

As usually defined, the TGI is the concentration giving total growth inhibition. The GI50 is the concentration at which growth is held to half of that of the control.
